Data reported in the NIST ThermoML archive (doi:10.1016/j.jct.2006.08.009).
± gives the expanded uncertainty stated by the source.

Test: mn = molality of the nth substance listed, in mol/kg
Details: 350 kPa, Liquid; for apparent molar heat capacity: Extra sensitive DSC

OC[C@@H](O)[C@@H](O)[C@@H](O)CO [SRS-1,2,3,4,5-pentanepentol] + O
Details	apparent molar heat capacity [J/K/mol]	mass density [kg/m3]
278.15 K, m1 = 0.0196	335 ± 49	1001.15 ± 0.17
278.15 K, m1 = 0.0506	329.5 ± 20	1002.66 ± 0.18
278.15 K, m1 = 0.1042	335.2 ± 10	1005.31 ± 0.18
278.15 K, m1 = 0.2591	334.4 ± 5.6	1012.83 ± 0.2
278.15 K, m1 = 0.5092	334.9 ± 4.3	1024.77 ± 0.22
278.15 K, m1 = 0.9969	336.5 ± 3.9	1046.03 ± 0.26
278.15 K, m1 = 1.998	336.2 ± 3.8	1084.53 ± 0.34
278.15 K, m1 = 3.177	339.7 ± 3.7	1119.46 ± 0.42
283.15 K, m1 = 0.0196	354 ± 50	1000.8 ± 0.17
283.15 K, m1 = 0.0506	343 ± 20	1002.31 ± 0.17
283.15 K, m1 = 0.1042	350.4 ± 10	1004.94 ± 0.18
283.15 K, m1 = 0.2591	349.6 ± 5.5	1012.39 ± 0.19
283.15 K, m1 = 0.5092	349.7 ± 4.2	1024.17 ± 0.22
283.15 K, m1 = 0.9969	350.6 ± 3.7	1045.12 ± 0.26
283.15 K, m1 = 1.998	349.4 ± 3.6	1083.19 ± 0.34
283.15 K, m1 = 3.177	351.5 ± 3.5	1117.64 ± 0.41
288.15 K, m1 = 0.0196	368 ± 49	1000.18 ± 0.17
288.15 K, m1 = 0.0506	354.3 ± 20	1001.7 ± 0.17
288.15 K, m1 = 0.1042	362 ± 10	1004.3 ± 0.18
288.15 K, m1 = 0.2591	361.4 ± 5.3	1011.68 ± 0.19
288.15 K, m1 = 0.5092	361.4 ± 4	1023.3 ± 0.22
288.15 K, m1 = 0.9969	361.7 ± 3.5	1044.05 ± 0.26
288.15 K, m1 = 1.998	359.9 ± 3.4	1081.81 ± 0.34
288.15 K, m1 = 3.177	361.1 ± 3.2	1115.96 ± 0.41
293.15 K, m1 = 0.0196	377 ± 46	–
293.15 K, m1 = 0.0506	365.3 ± 19	–
293.15 K, m1 = 0.1042	371.7 ± 10	–
293.15 K, m1 = 0.2591	371.2 ± 5.2	–
293.15 K, m1 = 0.5092	371 ± 3.9	–
293.15 K, m1 = 0.9969	371 ± 3.4	–
293.15 K, m1 = 1.998	368.5 ± 3.2	–
293.15 K, m1 = 3.177	369.4 ± 3	–
298.15 K, m1 = 0.0196	385 ± 45	998.09 ± 0.18
298.15 K, m1 = 0.0506	375.1 ± 18	999.6 ± 0.17
298.15 K, m1 = 0.1042	380.2 ± 9.7	1002.18 ± 0.17
298.15 K, m1 = 0.2591	379.6 ± 4.9	1009.48 ± 0.19
298.15 K, m1 = 0.5092	379.3 ± 3.7	1020.79 ± 0.21
298.15 K, m1 = 0.9969	379 ± 3.2	1041.23 ± 0.25
298.15 K, m1 = 1.998	376.1 ± 3	1078.43 ± 0.33
298.15 K, m1 = 3.177	376.6 ± 3	1112.13 ± 0.4
303.15 K, m1 = 0.0196	392 ± 44	–
303.15 K, m1 = 0.0506	383.2 ± 18	–
303.15 K, m1 = 0.1042	387.5 ± 9.5	–
303.15 K, m1 = 0.2591	386.8 ± 4.8	–
303.15 K, m1 = 0.5092	386.4 ± 3.6	–
303.15 K, m1 = 0.9969	385.9 ± 3	–
303.15 K, m1 = 1.998	382.8 ± 2.9	–
303.15 K, m1 = 3.177	383 ± 2.8	–
308.15 K, m1 = 0.0196	397 ± 44	995.08 ± 0.18
308.15 K, m1 = 0.0506	389.5 ± 18	996.56 ± 0.18
308.15 K, m1 = 0.1042	393.6 ± 9.2	999.1 ± 0.17
308.15 K, m1 = 0.2591	393 ± 4.8	1006.35 ± 0.18
308.15 K, m1 = 0.5092	392.6 ± 3.4	1017.44 ± 0.2
308.15 K, m1 = 0.9969	392 ± 3	1037.61 ± 0.25
308.15 K, m1 = 1.998	388.8 ± 2.9	1074.35 ± 0.32
308.15 K, m1 = 3.177	388.8 ± 2.8	1107.66 ± 0.39
313.15 K, m1 = 0.0196	403 ± 43	–
313.15 K, m1 = 0.0506	395.7 ± 17	–
313.15 K, m1 = 0.1042	399.2 ± 9.1	–
313.15 K, m1 = 0.2591	398.6 ± 4.7	–
313.15 K, m1 = 0.5092	398.2 ± 3.4	–
313.15 K, m1 = 0.9969	397.4 ± 2.9	–
313.15 K, m1 = 1.998	394.1 ± 2.7	–
313.15 K, m1 = 3.177	393.9 ± 2.6	–
318.15 K, m1 = 0.0196	408 ± 42	991.29 ± 0.19
318.15 K, m1 = 0.0506	401.1 ± 17	992.73 ± 0.19
318.15 K, m1 = 0.1042	404.3 ± 8.9	995.28 ± 0.18
318.15 K, m1 = 0.2591	403.7 ± 4.6	1002.45 ± 0.18
318.15 K, m1 = 0.5092	403.2 ± 3.3	1013.36 ± 0.2
318.15 K, m1 = 0.9969	402.3 ± 2.9	1033.3 ± 0.24
318.15 K, m1 = 1.998	398.9 ± 2.7	1069.71 ± 0.31
318.15 K, m1 = 3.177	398.6 ± 2.6	1102.66 ± 0.38
323.15 K, m1 = 0.0196	412.3 ± 42	–
323.15 K, m1 = 0.0506	405.8 ± 17	–
323.15 K, m1 = 0.1042	408.7 ± 8.8	–
323.15 K, m1 = 0.2591	408.1 ± 4.6	–
323.15 K, m1 = 0.5092	407.6 ± 3.3	–
323.15 K, m1 = 0.9969	406.7 ± 2.9	–
323.15 K, m1 = 1.998	403.3 ± 2.7	–
323.15 K, m1 = 3.177	402.8 ± 2.6	–
328.15 K, m1 = 0.0196	415.7 ± 41	986.75 ± 0.2
328.15 K, m1 = 0.0506	409.7 ± 17	988.19 ± 0.19
328.15 K, m1 = 0.1042	412.7 ± 8.7	990.72 ± 0.19
328.15 K, m1 = 0.2591	412.2 ± 4.4	997.84 ± 0.17
328.15 K, m1 = 0.5092	411.6 ± 3.3	1008.63 ± 0.19
328.15 K, m1 = 0.9969	410.7 ± 2.7	1028.38 ± 0.23
328.15 K, m1 = 1.998	407.3 ± 2.5	1064.46 ± 0.3
328.15 K, m1 = 3.177	406.7 ± 2.5	1097.15 ± 0.37
333.15 K, m1 = 0.0196	419.1 ± 41	–
333.15 K, m1 = 0.0506	413.4 ± 16	–
333.15 K, m1 = 0.1042	416.3 ± 8.7	–
333.15 K, m1 = 0.2591	415.8 ± 4.5	–
333.15 K, m1 = 0.5092	415.3 ± 3.3	–
333.15 K, m1 = 0.9969	414.3 ± 2.7	–
333.15 K, m1 = 1.998	410.9 ± 2.5	–
333.15 K, m1 = 3.177	410.3 ± 2.5	–
338.15 K, m1 = 0.0196	422.2 ± 40	981.58 ± 0.21
338.15 K, m1 = 0.0506	416.9 ± 16	983.05 ± 0.21
338.15 K, m1 = 0.1042	419.6 ± 8.6	985.54 ± 0.2
338.15 K, m1 = 0.2591	419.2 ± 4.5	992.64 ± 0.19
338.15 K, m1 = 0.5092	418.6 ± 3.2	1003.33 ± 0.18
338.15 K, m1 = 0.9969	417.6 ± 2.7	1022.96 ± 0.22
338.15 K, m1 = 1.998	414.3 ± 2.5	1058.79 ± 0.29
338.15 K, m1 = 3.177	413.6 ± 2.5	1091.26 ± 0.36
343.15 K, m1 = 0.0196	424.8 ± 40	–
343.15 K, m1 = 0.0506	420 ± 16	–
343.15 K, m1 = 0.1042	422.7 ± 8.5	–
343.15 K, m1 = 0.2591	422.2 ± 4.4	–
343.15 K, m1 = 0.5092	421.6 ± 3.2	–
343.15 K, m1 = 0.9969	420.6 ± 2.7	–
343.15 K, m1 = 1.998	417.3 ± 2.5	–
343.15 K, m1 = 3.177	416.5 ± 2.5	–
348.15 K, m1 = 0.0196	427.6 ± 40	975.89 ± 0.22
348.15 K, m1 = 0.0506	422.8 ± 16	977.36 ± 0.22
348.15 K, m1 = 0.1042	425.4 ± 8.5	979.79 ± 0.21
348.15 K, m1 = 0.2591	424.9 ± 4.4	986.84 ± 0.2
348.15 K, m1 = 0.5092	424.3 ± 3.2	997.49 ± 0.18
348.15 K, m1 = 0.9969	423.3 ± 2.7	1017.01 ± 0.21
348.15 K, m1 = 1.998	420.1 ± 2.5	1052.65 ± 0.28
348.15 K, m1 = 3.177	419.3 ± 2.5	1084.97 ± 0.35
353.15 K, m1 = 0.0196	429.6 ± 40	–
353.15 K, m1 = 0.0506	424.8 ± 16	–
353.15 K, m1 = 0.1042	427.8 ± 8.4	–
353.15 K, m1 = 0.2591	427.3 ± 4.4	–
353.15 K, m1 = 0.5092	426.7 ± 3.2	–
353.15 K, m1 = 0.9969	425.7 ± 2.7	–
353.15 K, m1 = 1.998	422.6 ± 2.5	–
353.15 K, m1 = 3.177	421.8 ± 2.5	–
358.15 K, m1 = 0.0196	431.8 ± 40	969.65 ± 0.24
358.15 K, m1 = 0.0506	426.7 ± 16	971.12 ± 0.23
358.15 K, m1 = 0.1042	430.1 ± 8.4	973.52 ± 0.23
358.15 K, m1 = 0.2591	429.5 ± 4.4	980.54 ± 0.21
358.15 K, m1 = 0.5092	428.9 ± 3.2	991.18 ± 0.19
358.15 K, m1 = 0.9969	427.9 ± 2.6	1010.61 ± 0.19
358.15 K, m1 = 1.998	424.9 ± 2.5	1046.1 ± 0.27
358.15 K, m1 = 3.177	424 ± 2.3	1078.29 ± 0.33
363.15 K, m1 = 0.0196	433.8 ± 40	–
363.15 K, m1 = 0.0506	427.7 ± 16	–
363.15 K, m1 = 0.1042	431.7 ± 8.5	–
363.15 K, m1 = 0.2591	431.2 ± 4.4	–
363.15 K, m1 = 0.5092	430.7 ± 3.2	–
363.15 K, m1 = 0.9969	429.8 ± 2.6	–
363.15 K, m1 = 1.998	426.9 ± 2.5	–
363.15 K, m1 = 3.177	425.9 ± 2.3	–
368.15 K, m1 = 0.0196	–	962.93 ± 0.25
368.15 K, m1 = 0.0506	–	964.44 ± 0.25
368.15 K, m1 = 0.1042	–	966.8 ± 0.24
368.15 K, m1 = 0.2591	–	973.76 ± 0.23
368.15 K, m1 = 0.5092	–	984.4 ± 0.21
368.15 K, m1 = 0.9969	–	1003.76 ± 0.18
368.15 K, m1 = 1.998	–	1039.13 ± 0.26
368.15 K, m1 = 3.177	–	1071.22 ± 0.32
